What all share (type): biochemical
One test deals with T1, JAK3 (Homo sapiens, UniProt P52333).
T1 sequence (P52333 1-1124): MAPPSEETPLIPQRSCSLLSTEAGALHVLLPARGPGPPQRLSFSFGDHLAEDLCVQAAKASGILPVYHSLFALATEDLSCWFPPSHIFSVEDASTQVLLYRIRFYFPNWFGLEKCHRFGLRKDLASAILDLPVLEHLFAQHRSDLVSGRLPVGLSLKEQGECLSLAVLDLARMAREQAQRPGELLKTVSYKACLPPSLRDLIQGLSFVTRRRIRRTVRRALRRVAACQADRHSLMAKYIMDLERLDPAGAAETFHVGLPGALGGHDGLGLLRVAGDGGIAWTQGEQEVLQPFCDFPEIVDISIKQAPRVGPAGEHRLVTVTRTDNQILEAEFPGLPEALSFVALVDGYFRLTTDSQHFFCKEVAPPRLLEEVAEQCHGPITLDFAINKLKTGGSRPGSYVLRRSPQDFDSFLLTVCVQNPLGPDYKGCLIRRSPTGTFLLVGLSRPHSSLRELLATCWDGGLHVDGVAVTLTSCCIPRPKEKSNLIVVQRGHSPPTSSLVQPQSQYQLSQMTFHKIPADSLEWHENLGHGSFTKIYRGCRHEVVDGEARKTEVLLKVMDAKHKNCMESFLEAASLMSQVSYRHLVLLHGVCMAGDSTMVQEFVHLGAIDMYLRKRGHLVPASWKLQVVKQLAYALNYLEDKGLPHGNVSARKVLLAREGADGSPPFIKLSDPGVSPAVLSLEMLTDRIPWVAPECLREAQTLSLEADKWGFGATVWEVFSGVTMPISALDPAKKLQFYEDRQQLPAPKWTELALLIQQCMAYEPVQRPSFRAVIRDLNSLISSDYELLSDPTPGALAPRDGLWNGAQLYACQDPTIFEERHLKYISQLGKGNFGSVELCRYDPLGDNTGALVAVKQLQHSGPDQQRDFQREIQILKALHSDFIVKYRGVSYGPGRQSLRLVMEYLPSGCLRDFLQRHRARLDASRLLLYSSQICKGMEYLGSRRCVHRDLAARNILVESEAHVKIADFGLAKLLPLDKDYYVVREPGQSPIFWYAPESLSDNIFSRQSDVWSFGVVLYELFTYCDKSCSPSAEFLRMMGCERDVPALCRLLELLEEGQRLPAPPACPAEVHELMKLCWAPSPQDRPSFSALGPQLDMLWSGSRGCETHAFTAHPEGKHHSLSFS
The test is described as follows: JAK3 inhibition assay (ELISA, Poly (Glu, Ala, Tyr) coated plates). To be noted: 2 mM ATP, 60 minutes at 30° C. Here is the method: Compound inhibition of JAK3 was assayed by the method described by G. R. Brown, et al., Bioorg. Med. Chem. Lett. 2000, vol. 10, pp 575-579 in the following manner. Into Maxisorb plates, previously coated at 4° C. with Poly (Glu, Ala, Tyr) 6:3:1 then washed with phosphate buffered saline 0.05% and Tween (PBST), was added 2 mM ATP, 5 mM MgCl2, and a solution of compound in DMSO. The reaction was started with JAK enzyme and the plates incubated for 60 minutes at 30° C. The plates were then washed with PBST, […] HRP-Conjugated 4G10 antibody was added, and the plate incubated for 90 minutes at 30° C. The plate was again washed with PBST, […] TMB solution is added, and the plates were incubated for another 30 minutes at 30° C. Sulfuric acid ([…] of 1M) was added to stop the reaction and the plate is read at 450 nm to obtain the optical densities for analysis to determine IC50 values.
On the technique in general: In an ELISA, binding on a coated surface is turned into a signal by an enzyme label.

The target in another test is c-Met (Homo sapiens, UniProt P08581). In words: Ki determination for the inhibition of c-Met, coupled enzyme system. To be noted: 200 μM ATP, 10 μM polyGluTyr, 80 nM c-Met, 30° C. The procedure: Compounds were screened for their ability to inhibit c-Met kinase activity using a standard coupled enzyme system (Fox et al., Protein Sci. 1998, 7, 2249). Reactions were carried out in a solution containing 100 mM HEPES (pH 7.5), 10 mM MgCl2, 25 mM NaCl, 300 μM NADH, 1 mM DTT, and 1.5% DMSO. Final substrate concentrations in the assay were 200 μM ATP (Sigma Chemicals, St Louis, Mo.) and 10 μM polyGluTyr (Sigma Chemical Company, St. Louis). Reactions were carried out at 30° C. and 80 nM c-Met. Final concentrations of the components of the coupled enzyme system were 2.5 mM phosphoenolpyruvate, 300 μM NADH, 30 μg/ml pyruvate kinase and 10 μg/ml lactate dehydrogenase.
An assay stock buffer solution was prepared containing all of the reagents listed above with the exception of ATP and a test compound of the present invention. The assay stock buffer solution (175 μl) was incubated in a 96 well plate with 5 μl of the test compound of the present invention at final concentrations spanning 0.006 μM to 12.5 μM at 30° C. for 10 minutes. Typically, a 12-point titration was conducted by preparing serial dilutions (from 10 mM compound stocks) with DMSO of the test compounds of the present invention in daughter plates. The reaction was initiated by the addition of 20 μl of ATP (final concentration 200 μM). Rates of reaction were obtained using a Molecular Devices Spectramax plate reader (Sunnyvale, Calif.) over 10 minutes at 30° C. The Ki values were determined from the rate data as a function of inhibitor concentration.

In a further test the target is KDR (Homo sapiens, UniProt P35968). The test is described as follows: KDR enzyme assay, coupled enzyme assay. The conditions noted are these: 300 μM ATP, 10 μM poly E4Y, 30 nM KDR, 37° C. Here is the method:
Compounds were screened for their ability to inhibit KDR using a standard coupled enzyme assay (Fox et al., Protein Sci., (1998) 7, 2249). Assays were carried out in a mixture of 200 mM HEPES 7.5, 10 mM MgCl2, 25 mM NaCl, 1 mM DTT and 1.5% DMSO. Final substrate concentrations in the assay were 300 μM ATP (Sigma Chemicals) and 10 μM poly E4Y (Sigma). Assays were carried out at 37° C. and 30 nM KDR. Final concentrations of the components of the coupled enzyme system were 2.5 mM phosphoenolpyruvate, 200 μM NADH, 30 μg/ML pyruvate kinase and 10 μg/ml lactate dehydrogenase.
An assay stock buffer solution was prepared containing all of the reagents listed above, with the exception of ATP and the test compound of interest. 177 μl of the stock solution was placed in a 96 well plate followed by addition of 3 μl of 2 mM DMSO stock containing the test compound (final compound concentration 30 μM). The plate was preincubated for about 10 minutes at 37° C. and the reaction initiated by addition of 20 μl of ATP (final concentration 300 μM). Rates of reaction were obtained using a Molecular Devices plate reader (Sunnyvale, Calif.) over a 5 minute read time at 37° C.

In a further test the target is GSK-3β, (AA 1-420) (Homo sapiens, UniProt P49841). In words: GSK-3 inhibition assay, coupled enzyme system. To be noted: 20 μM ATP, 300 μM peptide, 20 nM GSK-3b, 30° C.; read-out: Ki values (GSK3). The procedure: Compounds of the present invention were screened for their ability to inhibit GSK-3β, (AA 1-420) activity using a standard coupled enzyme system (Fox et al., Protein Sci. 1998, 7, 2249). Reactions were carried out in a solution containing 100 mM HEPES (pH 7.5), 10 mM MgCl2, 25 mM NaCl, 300 μM NADH, 1 mM DTT and 1.5% DMSO. Final substrate concentrations in the assay were 20 μM ATP (Sigma Chemicals, St Louis, Mo.) and 300 μM peptide (American Peptide, Sunnyvale, Calif.). Reactions were carried out at 30° C. and 20 nM GSK-3b. Final concentrations of the components of the coupled enzyme system were 2.5 mM phosphoenolpyruvate, 300 μM NADH, 30 μg/ml pyruvate kinase and 10 μg/ml lactate dehydrogenase.
An assay stock buffer solution was prepared containing all of the reagents listed above with the exception of ATP and the test compound of the present invention. The assay stock buffer solution (175 μl) was incubated in a 96 well plate with 5 μl of the test compound of the present invention at final concentrations spanning 0.002 μM to 30 μM at 30° C. for 10 min. Typically, a 12 point titration was conducted by preparing serial dilutions (from 10 mM compound stocks) with DMSO of the test compounds of the present invention in daughter plates. The reaction was initiated by the addition of 20 μl of ATP (final concentration 20 μM). Rates of reaction were obtained using a Molecular Devices Spectramax plate reader (Sunnyvale, Calif.) over 10 min at 30° C. The Ki values were determined from the rate data as a function of inhibitor concentration.

Chain of KDR (P35968 20-1356): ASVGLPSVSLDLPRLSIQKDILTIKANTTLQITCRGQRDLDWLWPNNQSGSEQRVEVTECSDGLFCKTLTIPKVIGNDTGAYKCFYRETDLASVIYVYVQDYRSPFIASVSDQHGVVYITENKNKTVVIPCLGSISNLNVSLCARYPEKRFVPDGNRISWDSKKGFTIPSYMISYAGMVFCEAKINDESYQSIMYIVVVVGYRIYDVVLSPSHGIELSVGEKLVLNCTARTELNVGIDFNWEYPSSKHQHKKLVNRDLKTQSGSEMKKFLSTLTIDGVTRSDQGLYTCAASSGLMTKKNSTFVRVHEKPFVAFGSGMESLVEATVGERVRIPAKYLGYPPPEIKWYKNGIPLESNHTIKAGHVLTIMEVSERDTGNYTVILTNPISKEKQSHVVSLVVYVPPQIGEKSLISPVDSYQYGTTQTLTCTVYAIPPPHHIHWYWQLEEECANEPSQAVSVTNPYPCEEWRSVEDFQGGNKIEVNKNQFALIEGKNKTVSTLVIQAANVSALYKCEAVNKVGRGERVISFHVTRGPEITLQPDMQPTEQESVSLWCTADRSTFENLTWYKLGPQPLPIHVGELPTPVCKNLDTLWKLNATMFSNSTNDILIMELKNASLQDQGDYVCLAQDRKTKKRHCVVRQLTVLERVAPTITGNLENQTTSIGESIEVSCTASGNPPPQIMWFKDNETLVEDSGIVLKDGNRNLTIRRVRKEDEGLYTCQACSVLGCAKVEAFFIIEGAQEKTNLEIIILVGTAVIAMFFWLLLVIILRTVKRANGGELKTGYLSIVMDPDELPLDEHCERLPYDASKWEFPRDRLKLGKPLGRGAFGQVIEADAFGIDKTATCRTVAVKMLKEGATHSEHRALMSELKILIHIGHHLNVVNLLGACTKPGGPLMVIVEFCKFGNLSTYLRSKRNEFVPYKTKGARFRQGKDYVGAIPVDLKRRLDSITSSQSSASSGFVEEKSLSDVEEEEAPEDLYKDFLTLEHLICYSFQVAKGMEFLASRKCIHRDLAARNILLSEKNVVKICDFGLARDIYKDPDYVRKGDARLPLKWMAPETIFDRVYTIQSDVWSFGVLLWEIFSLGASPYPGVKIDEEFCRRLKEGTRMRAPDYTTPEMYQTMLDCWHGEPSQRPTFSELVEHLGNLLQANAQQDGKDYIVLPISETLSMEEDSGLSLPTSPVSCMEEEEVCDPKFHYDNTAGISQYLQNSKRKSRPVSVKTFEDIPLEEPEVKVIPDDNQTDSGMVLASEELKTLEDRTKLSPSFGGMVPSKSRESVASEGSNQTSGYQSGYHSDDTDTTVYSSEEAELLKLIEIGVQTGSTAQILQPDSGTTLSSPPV
Chain of c-Met (P08581 25-1390): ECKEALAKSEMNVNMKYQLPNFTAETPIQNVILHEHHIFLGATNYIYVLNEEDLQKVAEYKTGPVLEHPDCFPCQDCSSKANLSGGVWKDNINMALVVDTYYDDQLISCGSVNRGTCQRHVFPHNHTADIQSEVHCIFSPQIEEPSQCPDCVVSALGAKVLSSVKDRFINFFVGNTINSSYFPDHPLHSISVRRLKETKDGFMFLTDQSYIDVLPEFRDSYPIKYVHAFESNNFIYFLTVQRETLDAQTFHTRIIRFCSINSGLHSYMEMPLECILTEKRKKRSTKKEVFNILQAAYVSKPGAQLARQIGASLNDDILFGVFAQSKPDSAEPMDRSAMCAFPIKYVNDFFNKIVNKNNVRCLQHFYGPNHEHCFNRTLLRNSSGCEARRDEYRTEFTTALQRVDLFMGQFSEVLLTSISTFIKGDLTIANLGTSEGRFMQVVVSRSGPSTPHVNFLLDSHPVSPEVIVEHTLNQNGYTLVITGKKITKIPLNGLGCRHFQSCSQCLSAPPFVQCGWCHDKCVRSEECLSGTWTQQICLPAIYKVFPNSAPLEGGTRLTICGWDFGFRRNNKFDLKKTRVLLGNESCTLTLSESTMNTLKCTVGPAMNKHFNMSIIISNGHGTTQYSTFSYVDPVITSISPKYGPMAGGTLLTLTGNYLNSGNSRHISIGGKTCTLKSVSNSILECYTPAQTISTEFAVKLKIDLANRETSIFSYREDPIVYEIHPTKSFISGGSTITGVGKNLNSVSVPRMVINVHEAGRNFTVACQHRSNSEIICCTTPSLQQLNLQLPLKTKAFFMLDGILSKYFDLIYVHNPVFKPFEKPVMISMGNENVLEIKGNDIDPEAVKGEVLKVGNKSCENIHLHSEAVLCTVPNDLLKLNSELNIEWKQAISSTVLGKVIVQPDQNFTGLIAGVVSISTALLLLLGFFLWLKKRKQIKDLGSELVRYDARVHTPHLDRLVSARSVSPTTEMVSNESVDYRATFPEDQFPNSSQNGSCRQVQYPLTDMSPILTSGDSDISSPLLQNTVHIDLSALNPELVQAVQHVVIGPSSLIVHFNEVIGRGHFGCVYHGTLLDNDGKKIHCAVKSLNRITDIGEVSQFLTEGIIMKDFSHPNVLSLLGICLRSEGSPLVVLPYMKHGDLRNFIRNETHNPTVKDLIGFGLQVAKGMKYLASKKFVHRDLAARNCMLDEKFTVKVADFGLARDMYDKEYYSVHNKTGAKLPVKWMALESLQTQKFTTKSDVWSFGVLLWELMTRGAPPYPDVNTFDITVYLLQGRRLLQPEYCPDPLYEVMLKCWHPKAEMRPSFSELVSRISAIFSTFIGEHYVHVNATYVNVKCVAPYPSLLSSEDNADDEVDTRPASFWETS
Chain of GSK-3β, (AA 1-420) (P49841 whole entry, the tested form may be a part): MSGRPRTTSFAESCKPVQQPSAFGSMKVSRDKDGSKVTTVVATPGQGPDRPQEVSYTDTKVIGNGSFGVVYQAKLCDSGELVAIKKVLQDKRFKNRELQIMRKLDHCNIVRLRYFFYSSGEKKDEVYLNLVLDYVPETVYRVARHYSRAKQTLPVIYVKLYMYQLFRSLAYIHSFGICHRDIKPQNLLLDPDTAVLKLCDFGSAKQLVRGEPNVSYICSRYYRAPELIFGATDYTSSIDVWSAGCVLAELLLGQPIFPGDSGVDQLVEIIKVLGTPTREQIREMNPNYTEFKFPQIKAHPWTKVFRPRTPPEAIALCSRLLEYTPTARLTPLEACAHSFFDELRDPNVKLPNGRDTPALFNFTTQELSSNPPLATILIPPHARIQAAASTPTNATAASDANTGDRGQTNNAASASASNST

On JAK3, `c1ccc(-c2cnoc2-c2c[nH]c3ncccc23)nc1` [Compound 50, 3-(4-Pyridin-2-yl-isoxazol-5-yl)-1H-pyrrolo[2,3-b]pyridine] had a Ki of 1000 to 12500 nM. Compound `Fc1cccc(-c2cnoc2-c2c[nH]c3nc(Cl)ccc23)c1F` [Compound 101, 6-Chloro-3-[4-(2,3-difluoro-phenyl)-isoxazol-5-yl]-1H-pyrrolo[2,3-b]pyridine] registered a Ki at c-Met of 1000 to 12500 nM. For the compound `CCNc1ccc2c(-c3oncc3-c3cccc(F)c3F)n[nH]c2n1` [Compound 30, {3-[4-(2,3-Difluoro-phenyl)-isoxazol-5-yl]-1H-pyrazolo[3,4-b]pyridin-6-yl}-ethyl-amine], the Ki at c-Met lay within 1000 to 12500 nM. On c-Met, `Fc1cccc(-c2cnoc2-c2c[nH]c3nc(N4CCCC4)ccc23)c1F` [Compound 100, 3-[4-(2,3-Difluoro-phenyl)-isoxazol-5-yl]-6-pyrrolidin-1-yl-1H-pyrrolo[2,3-b]pyridine] returned a Ki of 1000 to 12500 nM. On to `COc1cccc(-c2cnoc2-c2c[nH]c3ncccc23)c1OC` [Compound 51, 3-[4-(2,3-Dimethoxy-phenyl)-isoxazol-5-yl]-1H-pyrrolo[2,3-b]pyridine], for which the Ki lay in the range of 1000 to 12500 nM at c-Met, 200 to 1000 nM at JAK3 and 1000 to 12500 nM at KDR.

`COC(=O)Cn1ccc2c(-c3oncc3-c3cccc(F)c3F)c[nH]c2c1=O` [Compound 146, {3-[4-(2,3-Difluoro-phenyl)-isoxazol-5-yl]-7-oxo-1,7-di hydro-pyrrolo[2,3-c]pyridin-6-yl}-acetic acid methyl ester] registered a Ki at c-Met of 1000 to 12500 nM. `Fc1cccc(-c2cnoc2-c2n[nH]c3ncc(Br)cc23)c1F` [Compound 148]: the Ki was 200 to 1000 nM at c-Met; 1000 to 12500 nM at GSK-3β, (AA 1-420); 200 to 1000 nM at KDR. `c1cncc(-c2cnoc2-c2c[nH]c3ncccc23)c1` [Compound 52, 3-(4-Pyridin-3-yl-isoxazol-5-yl)-1H-pyrrolo[2,3-b]pyridine]: the Ki on c-Met lay within 1000 to 12500 nM; on GSK-3β, (AA 1-420), 1000 to 12500 nM; at JAK3, 1000 to 12500 nM. `Fc1cccc(-c2cnoc2-c2c[nH]c3c(F)cccc23)c1F` [Compound 33, 3-[4-(2,3-Difluoro-phenyl)-isoxazol-5-yl]-7-fluoro-1H-indole]: the Ki on GSK-3β, (AA 1-420) is 1000 to 12500 nM. Compound `O=c1c2[nH]cc(-c3oncc3-c3cccc(F)c3F)c2ccn1Cc1ccccc1` [Compound 147, 6-Benzyl-3-[4-(2,3-difluoro-phenyl)-isoxazol-5-yl]-1,6-dihydro-pyrrolo[2,3-c]pyridin-7-one] registered a Ki on c-Met of 1000 to 12500 nM. Compound `CN(C)c1ccc2c(-c3oncc3-c3cccc(F)c3F)n[nH]c2n1` [Compound 32] displayed a Ki on c-Met of 1000 to 12500 nM. With `N#Cc1ccc(-c2cnc3[nH]cc(-c4oncc4-c4cccc(F)c4F)c3c2)cc1` [Compound 89, 4-{3-[4-(2,3-Difluoro-phenyl)-isoxazol-5-yl]-1H-pyrrolo [2,3-b]pyridin-5-yl}-benzonitrile], the Ki was less than 200 nM at c-Met; 200 to 1000 nM at GSK-3β, (AA 1-420); less than 200 nM on KDR. Take `[O-][n+]1cccc2c(-c3oncc3-c3cccc(F)c3F)c[nH]c21` [Compound 151]: the Ki at c-Met was in the range of 1000 to 12500 nM; on GSK-3β, (AA 1-420), 1000 to 12500 nM. With `Fc1cccc(-n2nnnc2-c2c[nH]c3ncccc23)c1F` [Compound 11, 3-[1-(2,3-Difluoro-phenyl)-1H-tetrazol-5-yl]-1H-pyrrolo [2,3-b]pyridine], the inhibition constant (Ki) on c-Met fell in the range of 1000 to 12500 nM. The same measure, in the same setting: to `Fc1cccc(-n2cnnc2-c2c[nH]c3ncccc23)c1F` [Compound 107, 3-[4-(2,3-Difluoro-phenyl)-4H-[1,2,4]triazol-3-yl]-1H-pyrrolo[2,3-b]pyridine] belongs 1000 to 12500 nM.

What is called Ki is the dissociation constant of the complex between target and ligand, obtained from inhibition or displacement.

The record behind these values is patent US7446199B2, “Compositions useful as inhibitors of protein kinases” (Vertex Pharmaceuticals Incorporated, priority 2003, dated 2008).
